Results taken from the supplement of paper PMC10307832.

Columns and labels:
Test in all cases: relative viability (nuclei count vs DMSO), 5 days (fraction); higher = more cells survive
[1] = compound: CC(C)C[C@H](NC(=O)[C@H](Cc1ccccc1)NC(=O)c1cnccn1)B(O)O [Bortezomib] + NC(=O)Nc1cc(-c2cccc(F)c2)sc1C(=O)N[C@H]1CCCNC1 [AZD7762] (partner 0.2 µM)
Summary of the method: (§1)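 Values are medians from duplicate plates. Each reflects relative viability, defined as the nuclei count of treated wells over that of vehicle wells. Lung cancer cell lines in 1536-well plates were pin-tool dosed one day after seeding with one drug alone or with a fixed anchor-drug dose plus five library-drug doses (not always all listed) in √10 steps, then fixed, stained and imaged at 4× after 5 days.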

[2] = compound: CC1=CC(=NN1)NC2=CC(=NC(=N2)/C=C/C3=CC=CC=C3)N4CCN(CC4)C + CC1(C)CCC(c2ccc(Cl)cc2)=C(CN2CCN(c3ccc(C(=O)NS(=O)(=O)c4ccc(N[C@H](CCN5CCOCC5)CSc5ccccc5)c(S(=O)(=O)C(F)(F)F)c4)cc3)CC2)C1 [Navitoclax] (partner 0.5 µM)
Summary of the method: as §1

[3] = compound: CC1=CC(=NN1)NC2=CC(=NC(=N2)/C=C/C3=CC=CC=C3)N4CCN(CC4)C + COc1cc2c(Oc3ccc(NC(=O)C4(C(=O)Nc5ccc(F)cc5)CC4)cc3F)ccnc2cc1OCCCN1CCOCC1 [Foretinib] (partner 0.25 µM)
Summary of the method: as §1

[4] = compound: COC1=CC(c2cc3ccccc3[nH]2)=N/C1=C\c1[nH]c(C)cc1C [Obatoclax] + Nc1ncn([C@H]2C[C@H](O)[C@@H](CO)O2)c(=O)n1 [Decitabine] (partner 2 µM)
Summary of the method: as §1

| Cell Line | relative viability ([1]; first compound 0.0002 µM) | relative viability ([1]; first compound 0.000632 µM) | relative viability ([1]; first compound 0.002 µM) | relative viability ([1]; first compound 0.006325 µM) | relative viability ([1]; first compound 0.02 µM) | relative viability ([2]; first compound 0.08 µM) | relative viability ([2]; first compound 0.253 µM) | relative viability ([2]; first compound 0.8 µM) | relative viability ([2]; first compound 2.53 µM) | relative viability ([2]; first compound 8 µM) | relative viability ([3]; first compound 0.08 µM) | relative viability ([3]; first compound 0.253 µM) | relative viability ([3]; first compound 0.8 µM) | relative viability ([3]; first compound 2.53 µM) | relative viability ([3]; first compound 8 µM) | relative viability ([4]; first compound 0.01 µM) | relative viability ([4]; first compound 0.03162 µM) | relative viability ([4]; first compound 0.1 µM) | relative viability ([4]; first compound 0.3162 µM) | relative viability ([4]; first compound 1 µM) |
| --- | --- | --- | --- | --- | --- | --- | --- | --- | --- | --- | --- | --- | --- | --- | --- | --- | --- | --- | --- | --- |
| HCC-827 | 0.267 | 0.259 | 0.18 | 0.215 | 0.199 | 0.972 | 1.04 | 0.979 | 0.937 | 0.705 | 1.08 | 1.02 | 0.993 | 0.581 | 0.239 | 0.332 | 0.273 | 0.337 | 0.223 | 0.355 |
| HOP-62 | 0.603 | 0.387 | 0.51 | 0.25 | 0.043 | 0.903 | 1.27 | 1.03 | 1 | 0.124 | 1.14 | 1.13 | 1.04 | 0.739 | 0.195 | 0.257 | 0.177 | 0.206 | 0.277 | 0.214 |
| LC-2-ad | 0.828 | 0.787 | 0.878 | 0.271 | 0.182 | 0.432 | 0.332 | 0.224 | 0.0861 | 0.0584 | 0.875 | 0.942 | 0.753 | 0.413 | 0.204 | 0.706 | 0.784 | 0.82 | 0.742 | 0.847 |
| LCLC-97TM1 | 0.179 |  | 0.32 | 0.234 | 0.0966 | 0.492 | 0.781 | 0.294 | 0.201 | 0.106 | 0.911 | 0.954 | 0.961 | 0.296 | 0.132 | 0.216 | 0.197 | 0.196 | 0.214 | 0.192 |
| LK-2 | 0.335 | 0.387 | 0.533 | 0.449 | 0.0966 | 0.821 | 1.03 | 0.711 | 0.247 | 0.133 | 1.35 | 1.02 | 1 | 0.382 | 0.153 | 0.365 | 0.242 | 0.335 | 0.268 | 0.395 |
| LOU-NH91 | 0.729 | 0.68 | 0.361 | 0.348 | 0.339 | 0.706 | 0.729 | 0.697 | 0.387 | 0.201 | 0.94 | 0.976 | 0.912 | 0.848 | 0.507 | 0.743 | 0.833 | 0.728 | 0.758 | 0.606 |
| LU99A | 0.373 | 0.344 | 0.381 | 0.437 | 0.163 | 0.766 | 0.781 | 0.57 | 0.25 | 0.125 | 0.8 | 0.732 | 0.735 | 0.363 | 0.156 | 0.915 | 0.89 |  | 0.847 | 0.976 |
| LXF-289 | 1.12 | 1.03 | 1.19 | 0.11 | 0.0936 | 0.924 | 0.966 | 0.922 | 0.772 | 0.325 | 0.996 | 1.02 | 0.873 | 0.812 | 0.194 | 0.346 | 0.385 | 0.372 | 0.342 | 0.408 |
